Measured values taken from patent US11478474B2, “2-(3′-(hydroxymethyl)-1-methyl-5-((5-(2-methyl-4-(oxetan-3-yl)piperazin-1-yl)pyridin-2-yl)amino)-6-oxo-1,6-dihydro-[3,4′-bipyridin]-2′-yl)-7,7-dimethyl-7,8-dihydro-2H-cyclopenta[4,5]pyrrolo[1,2-a]pyrazin-1(6H)-one as a BTK inhibitor” (HUTCHISON MEDIPHARMA LIMITED, priority 2020, dated 2022).
Read-outs that look alike come from different tables or passages of the source.

Tests used:
[1] = test system: TMD8 subcutaneous xenograft (human diffuse large B-cell lymphoma cells); assay: In vivo efficacy in TMD8 subcutaneous xenograft model in nude mice; settings: for Number of animals with CR (Day 21): 8 animals per group; for Tumor volume (mm^3) ± SD Day 0: Day 0, before drug administration; for TGI (%) / Tumor volume (mm^3) ± SD Day 21: Day 21; for RBW (%) (Day 21): relative body weight; for Tumor growth inhibition (TGI %): oral gavage once a day, 21 days after treatment, vs vehicle control
Method: Example 7 Evaluation of In Vivo Efficacy of the Compound of the Present Invention in TMD8 Subcutaneous Xenograft Model
Objects: To investigate the anti-tumor activity of compound 19 in TMD8 subcutaneous xenograft model in nude mice.
Methods: Human diffuse large B-cell lymphoma cells TMD8 (acquired under license from Tokyo Medical and Dental University) were cultured in RPMI1640 medium containing 10% fetal bovine serum. 1×10^7 tumor cells suspended in RPMI1640 medium mixed well with Matrigel (purchased from Corning, USA) at 1:1 were implanted subcutaneously on the right flank of each male Balb/c nude mouse (Shanghai Lingchang Biotechnology Co., Ltd.), pretreated with cyclophosphamide (at a dose of 200 mg/kg, intraperitoneal injection 24 h before cell inoculation). […] All drugs were administered by oral gavage, once a day, and the vehicle control group was administered orally with 0.5% hydroxypropyl methylcellulose solution (pH=3).
Tumor volumes (tumor volume=0.5×long diameter×short diameter^2) and body weights of the mice were measured regularly. The tumor volume change and body weight were statistically analyzed, with p<0.05 considered statistically significant, and p<0.01 as extremely statistically significant.
The anti-tumor activity was evaluated by tumor growth inhibition. Tumor growth inhibition (TGI %)=100%×(1−(TVDt (treatment group)−TVD0 (treatment group))/(TVDt (control group)−TVD0 (control group))) Relative body weight (RBW %)=BWDt/BWD0×100%
wherein, TVD0 represents the tumor volume obtained at first measurement, namely, the tumor volume before drug administration, and TVDt represents the tumor volume on the day of measurement; BWD0 represents the body weight of the animal obtained at first measurement, namely, the body weight of the animal before drug administration; BWDt represents the body weight of the animal on the day of measurement.

[2] = test system: B cell activation in mouse whole blood induced by anti-IgD antibodies; assay: In vivo efficacy of the inhibitory effect on BTK target (anti-IgD antibody-induced B cell activation in mice whole blood after in vivo administration)
Method: Objects: B cells in mice whole blood were induced and activated by the anti-IgD antibody, and the inhibitory effect of the compound of the present invention on B cell activation in vivo was studied, so as to determine the inhibitory effect of the compound of the present invention on the BTK target in vivo.
Methods: C57BL/6 mice (female, 18-20 g, purchased from Shanghai Lingchang Biotechnology Co., Ltd.) were grouped according to Table 2.
The animals of each group were administered, then were placed in CO2 for anesthesia at designated time points, blood samples were taken from […] via retro-orbital bleeding, and heparin was used for anticoagulation; 90 μL of whole blood was taken from mice of each group, and added to a 96 well culture plate, and anti-mouse IgD antibody (BIO-RAD, Cat #MCA4693) was added to each well to a final concentration of 0.01 μg/μL (respectively for the each drug-treated group and anti-IgD antibody-inducted vehicle group); in addition, 90 μL of whole blood of mice in the vehicle group was taken and added to the 96-well culture plate, and PBS (phosphate buffer, GIBCO, Cat #C20012500BT) was added to each well to a final concentration of 0.01 μg/μL (namely, the vehicle control group); Each group was mixed well and incubated in a 37° C./5% CO2 incubator for 4 hours. In addition, the blood of mice in the drug-treated group was centrifuged to separate plasma for blood concentration analysis.
Calculation for B Cell Activation Ratio: B cell activation ratio=percentage of CD69+CD19+double positive B cells/percentage of CD19+single positive B cells
Calculation for Inhibition Ratio: Inhibition ratio=(percentage of B cell activation ratio in anti-IgD antibody-induced vehicle group-percentage of B cell activation ratio in drug-treated group)/(percentage of B cell activation ratio in anti-IgD antibody-induced vehicle group-percentage of B cell activation ratio in vehicle control group)×100%
All data are represented by mean±standard error. For the comparison between each drug-treated group and the anti-IgD antibody-induced vehicle group, p value was calculated by Graphpad Prism using one-way ANOVA analysis of variance and Dunnett's test, and for the comparison between each drug-treated group, p value was calculated by using unpaired t test.

[3] = Study on in vivo pharmacokinetics in mice; settings: 10 mg/kg
From the text: Example 6 Study on In Vivo Pharmacokinetics in Mice
Solutol HS15 was purchased from BASF, Germany, ethanol (anhydrous) was purchased from Nanjing Chemical Reagent Co., Ltd., physiological saline was purchased from Huayu (Wuxi) Pharmaceutical Co., Ltd., dimethyl sulfoxide (DMSO) and sodium carboxymethyl cellulose 800-1200 (CMC-Na) were purchased from Sinopharm Chemical Reagent Co., Ltd.
Preparation of ethanol/Solutol mixed solution (1:1, v/v): taking an appropriate amount of Solutol HS15 in a centrifuge tube and placing in a 37° C. water bath until dissolved, placing on the bench top to room temperature, taking 1 mL of Solutol in a centrifuge tube containing 1 mL of ethanol and mixing well to obtain the mixed solution.
Taking an appropriate amount of stock solution and placing in a blank centrifuge tube, adding an appropriate amount of ethanol/Solutol mixed solution prepared in advance, vortexing, then adding an appropriate amount of physiological saline, and mixing well until a transparent liquid.
3. Administration to Animals and Sample Collection:
Male ICR mice were purchased from Shanghai Lingchang Biotechnology Co., Ltd. 18 mice were randomly divided into intravenous administration group and intragastric administration group. The mice were fasted overnight before administration. The mice were withheld food but allowed to access water freely within 4 hours after administration, and allowed to freely access food and water after 4 hours. After anesthesia with isoflurane, blood was collected from the retroorbital venous plexus and placing in an centrifuge tube containing anticoagulant, and the centrifuge tube was stored in an box containing wet ice until the plasma was centrifuged.
The plasma samples were pre-treated and then analyzed by liquid chromatography-tandem mass spectrometry (LC-MS/MS), the instrument model was API5500. The analytical chromatographic column was Waters XSELECT HSS T3 C18 column (50×2.1 mm, 2.5 μm). In the mobile phases, deionized water containing 0.1% formic acid and 0.1% acetonitrile was used as the aqueous phase and acetonitrile containing 0.1% formic acid was used as the organic phase. The concentrations of the compound in the samples were determined as follows. Firstly, a standard curve was established, and the peak area ratios of the compound 19 to the internal standard in the standard curve were used as indexes. The theoretical concentrations of compound 19 and the peak area ratios of compound 19 to the internal standard were fitted with a quadratic regression equation to obtain the regression equation. The sample concentrations were calculated by measuring the peak area ratio of the compound of the test sample to the internal standard according to the standard curve.

[4] = 10 mg/kg oral gavage once a day
[5] = 30 mg/kg oral gavage once a day
[6] = male ICR mice, oral (intragastric) administration, plasma
[7] = male ICR mice, oral (intragastric) administration, plasma, 24 h
[8] = mouse, male ICR mice, oral (intragastric) administration, plasma
[9] = mouse, male ICR mice, oral (intragastric) administration, plasma, read-out: Cmax

Cmax [3, 6]	C24 h (plasma concentration at 24 h) [3, 7]	AUC(0-inf) [3, 8]	half-life [3, 8]	Cmax [3, 9]	Compound	Number of animals with CR (Day 21) [1, 4]	Tumor volume (mm^3) ± SD Day 0 [1, 4]	TGI (%) [1, 4]	Tumor volume (mm^3) ± SD Day 21 [1, 4]	RBW (%) (Day 21) [1, 4]	Tumor growth inhibition (TGI %) ([1]; 10 mg/kg)	further results
3807 ng/mL	8.5 ng/mL	17800 ng·h/mL	2.7 h	3810 ng/mL	C[C@H]1CN(C2COC2)CCN1c1ccc(Nc2cc(-c3ccnc(-n4ccn5c6c(cc5c4=O)CC(C)(C)C6)c3CO)cn(C)c2=O)nc1 [Compound 19]	0	400 ± 41 mm^3	76.5%	1065 mm^3	111.0%	76.5%	Number of animals with CR (Day 21) [1, 5]: 8; Tumor volume (mm^3) ± SD Day 0 [1, 5]: 396 ± 47 mm^3; TGI (%) [1, 5]: 114%; Tumor volume (mm^3) ± SD Day 21 [1, 5]: 0 mm^3; RBW (%) (Day 21) [1, 5]: 109.8%; Tumor growth inhibition (TGI %) ([1]; 30 mg/kg): 114%; mice with complete tumor regression (CR) ([1]; 30 mg/kg, oral once a day, Day 21, 8 animals per group): 8 mice; B cell activation ratio (the proportion of activated B cells to total B cells) ([2]; 5 mg/kg, 16 h after administration, mice whole blood, anti-IgD antibody, mean±standard error): 8.3 ± 1.2; Inhibition ratio (%) on B cell activation ([2]; 5 mg/kg, 16 hours after administration, mice whole blood, anti-IgD antibody, listed as Compound 19): 80%; Inhibition ratio (%) on B cell activation ([2]; 5 mg/kg, 16 hours after administration, mice whole blood, anti-IgD antibody, listed as compound 19): 80%; C8 h (plasma concentration at 8 h) ([3]; male ICR mice, oral (intragastric) administration, plasma, 8 h): 555 ng/mL; plasma exposure (AUC0-∞) relative to the reference GDC-0853 ([3]; mice, oral administration): about 1.7 times; plasma concentration at 8 h relative to GDC-0853 ([3]; mice, oral administration, 8 h): about 3.9 folds
4063 ng/mL	<2.4 ng/mL	10300 ng·h/mL	1.5 h	4060 ng/mL	C[C@H]1CN(C2COC2)CCN1c1ccc(Nc2cc(-c3ccnc(N4CCn5c(cc6c5CC(C)(C)C6)C4=O)c3CO)cn(C)c2=O)nc1 [GDC-0853, fenebrutinib, reference compound]	0	397 ± 46 mm^3	−12.8%	3585 ± 494 mm^3	115.5%	−12.8%	Inhibition ratio (%) ([2]; 20 mg/kg single oral gavage, 16 h): 9%; B cell activation ratio (the proportion of activated B cells to total B cells) ([2]; 20 mg/kg single oral gavage, 16 h, mean ± standard error): 29.3 ± 6.7; inhibition ratio on B cell activation ([2]; 20 mg/kg, 16 hours after administration, mice whole blood, anti-IgD antibody): 9%; concentration at 8 h ([3]; mouse, male ICR mice, oral (intragastric) administration, plasma, 8 h, read-out: C8 h (plasma concentration at 8 h)): 143 ng/mL; concentration at 24 h ([3]; mouse, male ICR mice, oral (intragastric) administration, plasma, 24 h, read-out: C24 h (plasma concentration at 24 h)): < 2.4 ng/mL
